Here are results for eleven compounds from ChEMBL document CHEMBL5357030, “Caged Xanthones and Biphenyls Isolated from the Tropical Plant Garcinia lateriflora” (J Nat Prod, 2024).

Common to all, as to assay type: functional, cell-based
The test system of one assay is A549. The experiment in a line: Antiproliferative activity against human A549 cells assessed as inhibition of cell growth incubated for 72 hrs by SRB assay. The note with it: A549, 72 h.
The next assay deals with MDA-MB-231. Nature of the assay: Antiproliferative activity against triple negative human MDA-MB-231 cells assessed as inhibition of cell growth incubated for 72 hrs by SRB assay. The note with it: MDA-MB-231, 72 h. A general note: The SRB assay estimates cell density from bound dye.
A further assay has as its system MCF7. Nature of the assay: Antiproliferative activity against HER2-negative human MCF7 cells assessed as inhibition of cell growth incubated for 72 hrs by SRB assay. The note with it: MCF7, 72 h.
Another assay deals with KB. Nature of the assay: Antiproliferative activity against human KB cells assessed as inhibition of cell growth incubated for 72 hrs by SRB assay.
Assay [1] can be described thus: Antiproliferative activity against human KB-VIN cells overexpressing p-gp assessed as inhibition of cell growth incubated for 72 hrs by SRB assay. The note with it: KBVIN.

As to `COc1cc(-c2ccc(O)c(CCC(C)CO)c2)cc(O)c1O` (stereo not drawn), the IC50 (in the assay with A549; in the assay on MDA-MB-231; in the assay with MCF7; with KB; in assay [1]) was over 10 µM in each case.

With `C=CC(C)(C)c1c2c(c(O)c3c1OC(C)(C)[C@H]1CCC(C)=C[C@@H]31)C(=O)[C@@H]1[C@@H](OC)[C@@H]3C[C@H]4C(C)(C)O[C@@](C/C=C(\C)C(=O)O)(C3=O)[C@@]14O2`, the IC50 is 5.6 µM in the assay on A549; 5.7 µM in the assay with MDA-MB-231; 6.4 µM in the assay on MCF7; 5.2 µM in the assay with KB; 5.2 µM in assay [1].

Take `C=CC(C)(C)c1c2c(c(O)c3c1OC(C)(C)[C@H]1CCC(C)=C[C@@H]31)C(=O)[C@@H]1[C@@H](O)[C@@H]3C[C@H]4C(C)(C)O[C@@](C/C=C(\C)C(=O)O)(C3=O)[C@@]14O2`: the IC50 was found to be 6.1 µM in the assay on A549; 6.4 µM with MDA-MB-231; 6.7 µM with MCF7; 5.3 µM with KB; 5.7 µM in assay [1].

`C=CC(C)(C)c1c2c(c(O)c3c1O[C@]14[C@H](C3=O)[C@@H](OC)[C@H]3C[C@H]1C(C)(C)O[C@@]4(C/C=C(\C)C(=O)O)C3=O)C=CC(C)(C)O2`: the IC50 in the assay with A549 was over 10 µM; with MDA-MB-231 it was over 10 µM; in the assay with MCF7 it was 10.4 µM; in the assay with KB it was 6.1 µM; in assay [1], over 10 µM.

As to `COc1c(O)c(O)cc(-c2ccccc2)c1CC=C(C)C`, the IC50 (with A549; with MDA-MB-231; in the assay with MCF7; with KB; in assay [1]) was over 10 µM throughout.

As to `C=CC(C)(C)c1c2c(c(O)c3c1O[C@]14C(=C[C@@H]5C[C@H]1C(C)(C)O[C@@]4(C/C=C(\C)C(=O)O)C5=O)C3=O)C=CC(C)(C)O2`, the IC50 amounted to 0.8 µM in the assay with A549; 0.5 µM with MDA-MB-231; 1.3 µM in the assay on MCF7; 0.6 µM in the assay on KB; 0.6 µM in assay [1].

Regarding `C=CC(C)(C)c1c2c(c(O)c3c1OC(C)(C)[C@H]1CCC(C)=C[C@@H]31)C(=O)C1=C[C@@H]3C[C@H]4C(C)(C)O[C@@](C/C=C(/C)C(=O)O)(C3=O)[C@@]14O2`, the IC50 is 3 µM in the assay on A549; 2.9 µM with MDA-MB-231; 3.2 µM with MCF7; 1.8 µM in the assay on KB; 4 µM in assay [1].

`COc1cc(-c2ccc(O)c(C/C=C(/C)CO)c2)cc(O)c1O`: the IC50 (in the assay with A549; in the assay on MDA-MB-231; in the assay on MCF7; in the assay with KB; in assay [1]) was over 10 µM in each case.

Regarding `C=CC(C)(C)c1c2c(c(O)c3c1OC(C)(C)[C@H]1CCC(C)=C[C@@H]31)C(=O)C1=C[C@@H]3C[C@H]4C(C)(C)O[C@@](C/C=C(\C)C(=O)O)(C3=O)[C@@]14O2`, the half-inhibitory concentration (IC50) in the assay on A549 came to 2.9 µM; in the assay on MDA-MB-231 it was 4.6 µM; with MCF7 it was 5.6 µM; with KB it was 1.2 µM; in assay [1], 5.2 µM.

Consider `COc1cc(-c2ccc3c(c2)C=CC(C)(C)O3)cc(O)c1O`, for which the IC50 (with A549; with MDA-MB-231; in the assay on MCF7; in the assay on KB; in assay [1]) was over 10 µM throughout.

`CC(=O)O[C@H]1C(=O)[C@@]2(C)[C@H]([C@H](OC(=O)c3ccccc3)[C@]3(O)C[C@H](OC(=O)[C@H](O)[C@@H](NC(=O)c4ccccc4)c4ccccc4)C(C)=C1C3(C)C)[C@]1(OC(C)=O)CO[C@@H]1C[C@@H]2O` [PACLITAXEL]: the IC50 with MDA-MB-231 is 0.0009 µM; in the assay on KB it was under 0.0001 µM; in assay [1], 2.2 µM.

By IC50 is commonly meant the concentration that inhibits the measured activity by half.
